According to paper PMC7819857, “Identification of Inhibitors of Integrin Cytoplasmic Domain Interactions With Syk” (Frontiers in Immunology, 2021):

System: IL-1β gene expression in THP-1 cells
Test: Quantitative PCR of adhesion-dependent IL-1β expression in THP-1 cells
Format: cell-based, human
Conditions: 100 µM loaded cells, plated on CS-1, 4 h, qPCR
Method: THP-1 cells (2 × 10^6 per treatment group) that were glycerol loaded with ceftazidime (100 µM) or vehicle control (as described above) were plated on CS-1 peptide (10 µg/ml; 6-well plates) in serum-free RPMI-1640. Control cells were also kept in suspension. Plated and suspension cells were incubated for 4 h at 37°C. After incubation, the medium was removed, and RNA was isolated from cells with a Qiagen RNA extraction kit. After cDNA synthesis, quantitative real-time PCR was used to determine the relative gene expression levels of IL-1β and monocyte chemoattractant protein (MCP)-1 in THP-1 cells adhered to CS-1 in the presence of vehicle or ceftazidime relative to that of cells in suspension. The cycle threshold (Ct) results generated were analyzed according to the comparative Ct method (2^-ΔΔCt), where ΔCt is the difference between the CT value of target versus GAPDH control, and ΔΔCt is the difference between the ΔCt values of a given treated adherent cell sample and that of cells in suspension. Statistical differences between the two treatment groups for each target were determined by a two-tailed, unpaired Student t test using GraphPad Prism 7.04 statistical software.
Figure 6 Selective inhibition of integrin signaling by ceftazidime. […] Data are expressed as mean ± range from duplicate determinations. […] Kinase activity is expressed as percent of maximum signal. […]

## CC(C)(O/N=C(\C(=O)N[C@@H]1C(=O)N2C(C(=O)[O-])=C(C[n+]3ccccc3)CS[C@H]12)c1csc(N)n1)C(=O)O [ceftazidime]
  adhesion-dependent induction of the expression of IL-1β: significantly inhibited
